Experimental data: PubChem BioAssay AID2060497 (Molecular Pharmacology Branch, DTP, NCI, 2025)
pIC50: −log10 of the molar value.

System: 317291-083-R-J1-PDC complex spheroids, viability
Test: Anticancer human tumor 317291-083-R-J1-PDC patient-derived soft tissue sarcoma cell line growth inhibition [GQUAD]
Conditions: for pIC50: curve of first compound; for viability, T/C: stronger effect = lower value
Method in brief: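 Tumor cells were grown as complex spheroids with HUVEC endothelial cells and mesenchymal stem cells as stroma. G-quadruplex stabilizers were combined with targeted agents over half-log dilutions from near the clinical Cmax, or from 10 microM.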

[1] = second compound 0.0316 µM, first compound 0.0316 µM
[2] = second compound 0.0316 µM, first compound 0.316 µM
[3] = second compound 0.1 µM, first compound 0.0316 µM
[4] = second compound 0.1 µM, first compound 0.316 µM
[5] = second compound 0.316 µM, first compound 0.0316 µM
[6] = second compound 0.316 µM, first compound 0.316 µM
[7] = second compound 1 µM, first compound 0.0316 µM
[8] = second compound 1 µM, first compound 0.316 µM
[9] = second compound 3.16 µM, first compound 0.0316 µM
[10] = second compound 3.16 µM, first compound 0.316 µM
[11] = second compound 10 µM, first compound 0.0316 µM
[12] = second compound 10 µM, first compound 0.316 µM
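Also: spheroids exposed to compounds for one week before readout.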
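For viability, T/C in this document: percent viability relative to DMSO vehicle wells taken as 100%.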

Cc1[nH]c2ccccc2c1CCNCc1ccc(/C=C/C(=O)NO)cc1 + Cc1[nH]c2ccc(F)cc2c1-c1nc2c3cccnc3c3ncccc3c2[nH]1
pIC50 (second compound 0.0316 µM): 7.36
pIC50 (second compound 0.1 µM): 7.32
pIC50 (second compound 0.316 µM): 7.92
pIC50 (second compound 1 µM): 8.39
pIC50 (second compound 3.16 µM): 8.97
pIC50 (second compound 10 µM): > 9.00
viability, T/C (second compound 0.0316 µM, first compound 0.000999 µM): 114%
viability, T/C (second compound 0.0316 µM, first compound 0.00316 µM): 96.7%
viability, T/C (second compound 0.0316 µM, first compound 0.00999 µM): 96.9%
viability, T/C [1]: 67%
viability, T/C (second compound 0.0316 µM, first compound 0.0999 µM): 6.7%
viability, T/C [2]: 0.62%
viability, T/C (second compound 0.1 µM, first compound 0.000999 µM): 93.4%
viability, T/C (second compound 0.1 µM, first compound 0.00316 µM): 93.3%
viability, T/C (second compound 0.1 µM, first compound 0.00999 µM): 85.2%
viability, T/C [3]: 74%
viability, T/C (second compound 0.1 µM, first compound 0.0999 µM): 8.53%
viability, T/C [4]: 0.12%
viability, T/C (second compound 0.316 µM, first compound 0.000999 µM): 73.3%
viability, T/C (second compound 0.316 µM, first compound 0.00316 µM): 68.5%
viability, T/C (second compound 0.316 µM, first compound 0.00999 µM): 53.9%
viability, T/C [5]: 28.9%
viability, T/C (second compound 0.316 µM, first compound 0.0999 µM): 6.05%
viability, T/C [6]: 0.16%
viability, T/C (second compound 1 µM, first compound 0.000999 µM): 59.9%
viability, T/C (second compound 1 µM, first compound 0.00316 µM): 51%
viability, T/C (second compound 1 µM, first compound 0.00999 µM): 39.7%
viability, T/C [7]: 15.5%
viability, T/C (second compound 1 µM, first compound 0.0999 µM): 3.36%
viability, T/C [8]: 0.14%
viability, T/C (second compound 3.16 µM, first compound 0.000999 µM): 51.5%
viability, T/C (second compound 3.16 µM, first compound 0.00316 µM): 39%
viability, T/C (second compound 3.16 µM, first compound 0.00999 µM): 19.9%
viability, T/C [9]: 27.9%
viability, T/C (second compound 3.16 µM, first compound 0.0999 µM): 1.59%
viability, T/C [10]: 0.17%
viability, T/C (second compound 10 µM, first compound 0.000999 µM): 48.7%
viability, T/C (second compound 10 µM, first compound 0.00316 µM): 49%
viability, T/C (second compound 10 µM, first compound 0.00999 µM): 51.4%
viability, T/C [11]: 13.5%
viability, T/C (second compound 10 µM, first compound 0.0999 µM): 3.62%
viability, T/C [12]: 0.24%

C=CC(=O)N1CCN(c2nc(=O)n(-c3c(C)ccnc3C(C)C)c3nc(-c4c(O)cccc4F)c(F)cc23)C(C)C1 (centres undefined) + Cc1[nH]c2ccc(F)cc2c1-c1nc2c3cccnc3c3ncccc3c2[nH]1
pIC50 (second compound 0.0316 µM): < 5.00
pIC50 (second compound 0.1 µM): < 5.00
pIC50 (second compound 0.316 µM): < 5.00
pIC50 (second compound 1 µM): < 5.00
pIC50 (second compound 3.16 µM): < 5.00
pIC50 (second compound 10 µM): 5.23
viability, T/C [1]: 112%
viability, T/C (second compound 0.0316 µM, first compound 0.1 µM): 99.2%
viability, T/C [2]: 113%
viability, T/C (second compound 0.0316 µM, first compound 1 µM): 89.5%
viability, T/C (second compound 0.0316 µM, first compound 3.16 µM): 102%
viability, T/C (second compound 0.0316 µM, first compound 10 µM): 60.8%
viability, T/C [3]: 110%
viability, T/C (second compound 0.1 µM, first compound 0.1 µM): 97.4%
viability, T/C [4]: 104%
viability, T/C (second compound 0.1 µM, first compound 1 µM): 116%
viability, T/C (second compound 0.1 µM, first compound 3.16 µM): 93.4%
viability, T/C (second compound 0.1 µM, first compound 10 µM): 71.8%
viability, T/C [5]: 101%
viability, T/C (second compound 0.316 µM, first compound 0.1 µM): 113%
viability, T/C [6]: 105%
viability, T/C (second compound 0.316 µM, first compound 1 µM): 99.4%
viability, T/C (second compound 0.316 µM, first compound 3.16 µM): 104%
viability, T/C (second compound 0.316 µM, first compound 10 µM): 85.3%
viability, T/C [7]: 109%
viability, T/C (second compound 1 µM, first compound 0.1 µM): 102%
viability, T/C [8]: 110%
viability, T/C (second compound 1 µM, first compound 1 µM): 104%
viability, T/C (second compound 1 µM, first compound 3.16 µM): 88.9%
viability, T/C (second compound 1 µM, first compound 10 µM): 73.2%
viability, T/C [9]: 93.3%
viability, T/C (second compound 3.16 µM, first compound 0.1 µM): 91.4%
viability, T/C [10]: 96%
viability, T/C (second compound 3.16 µM, first compound 1 µM): 93.1%
viability, T/C (second compound 3.16 µM, first compound 3.16 µM): 74.7%
viability, T/C (second compound 3.16 µM, first compound 10 µM): 51.5%
viability, T/C [11]: 58.4%
viability, T/C (second compound 10 µM, first compound 0.1 µM): 69.9%
viability, T/C [12]: 78.5%
viability, T/C (second compound 10 µM, first compound 1 µM): 74.3%
viability, T/C (second compound 10 µM, first compound 3.16 µM): 74.9%
viability, T/C (second compound 10 µM, first compound 10 µM): 32.7%
